This is an account of results in patent publication US20150004134A1, “TREATMENT OF CANCER WITH HETEROCYCLIC INHIBITORS OF GLUTAMINASE” (Calithera Biosciences, Inc., priority 2012, published 2015).

Like-named read-outs stand apart in the source and are kept apart here. Bounds are passed on as bounds.

Assay [1] concerns the target T1, recombinant form of Glutaminase 1 (GAC) (Homo sapiens, UniProt O94925).
T1 sequence (O94925 137-598 isoform O94925-3 limits assumed): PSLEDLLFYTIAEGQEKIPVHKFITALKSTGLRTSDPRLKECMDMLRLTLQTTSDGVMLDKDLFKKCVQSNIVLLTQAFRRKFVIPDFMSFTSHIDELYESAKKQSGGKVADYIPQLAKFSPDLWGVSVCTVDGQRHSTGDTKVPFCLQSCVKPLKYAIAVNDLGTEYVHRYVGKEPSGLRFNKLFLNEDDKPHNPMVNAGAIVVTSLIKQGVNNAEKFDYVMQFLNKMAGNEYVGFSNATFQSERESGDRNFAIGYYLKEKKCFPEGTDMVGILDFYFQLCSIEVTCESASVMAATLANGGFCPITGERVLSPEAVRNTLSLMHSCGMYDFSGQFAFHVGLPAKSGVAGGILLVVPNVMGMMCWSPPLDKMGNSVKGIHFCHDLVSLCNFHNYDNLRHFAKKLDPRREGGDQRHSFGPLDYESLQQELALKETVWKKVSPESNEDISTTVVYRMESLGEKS
As to the kind of experiment: Recombinant Enzyme Assay (no preincubation).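 Further: GDH-coupled GAC activity read as absorbance at 340 nm in kinetic mode over 15 min at 20 °C, slopes compared with a DMSO-only control, lower slope means inhibition.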 Format: biochemical. As to conditions: read-out: GAC Delta N2 IC50 no preinc.
Experimental: Compounds were assessed for their ability to inhibit the enzymatic activity of a recombinant form of Glutaminase 1 (GAC) using a biochemical assay that couples the production of glutamate (liberated by GAC) to glutamate dehydrogenase (GDH) and measuring the change in absorbance for the reduction of NAD^+ to NADH. […] Enzymatic reaction was started with the addition of 50 μL of enzyme solution (50 mM Tris-HCl pH 8.0, 0.2 mM EDTA, 150 mM K2HPO4, 0.1 mg/ml BSA, 1 mM DTT, 10 ppm antifoam, 4 units/ml GDH, 4 mM adenosine diphosphate, and 4 nM GAC) and read in a Molecular Devices M5 plate reader at 20° C. The plate reader was configured to read absorbance (λ=340 nm) in kinetic mode for 15 minutes. Data was recorded as milli-absorbance units per minute and slopes were compared to a control compound and a DMSO-only control on the same plate. Compounds with slopes less than the DMSO control were considered inhibitors and plate variability was assessed using the control compound.

The next assay has as its system P493-6 (myc "on") cells. As to the kind of experiment: Cell Proliferation Assay. As to conditions: P493-6, 72 h. Format: cell-based. The gist of the method: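 Read-out: either Cell Titer Glo or Guava Viacount flow analysis after 72 h compound treatment of myc-on P493-6 cells (10,000/well, RPMI with 10% FBS) at 37 °C. DMSO held at 0.5% final.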
For assay [2], the target named is T1, recombinant form of Glutaminase 1 (GAC). As to the kind of experiment: Recombinant Enzyme Assay - Time Dependence (60 min preincubation). Format: biochemical. Summed up:
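Enzyme and compound preincubated 60 min at 20° C; reaction started with substrate buffer (50 mM Tris-HCl pH 8.0, 150 mM K2HPO4, 1 mM DTT, 20 mM L-glutamine, 2 mM NAD^+). NADH formation followed at 340 nm in kinetic mode for 15 min at 20° C; slopes (mAU/min) compared with DMSO and control-compound wells.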

[3] abbreviates: read-out: Cell prolif P493 72 h IC50, P493 cells, 72 h.
The mark [4] stands for this setting: read-out: GAC Delta N2 IC50 60 min preinc.
Where [5] appears, read: read-out: Cell prolif P493 72 h IC50, P493-6 cells, 72 h.

Regarding `O=C(Nc1nnc(CCSCCc2nnc(NC(=O)C(CO)c3ccccc3)s2)s1)C(CO)c1ccccc1` (centres unmarked) [Compound 24], the IC50 came to 510 nM in assay [1] and 2300 nM with P493-6 (myc "on") cells (setting [3]). In the case of `O=C(CCCCN1CCOCC1)OCN(C(=O)Cc1ccccc1)c1nnc(CCSCCc2nnc(N(COC(=O)OCCCN3CCOCC3)C(=O)Cc3ccccc3)s2)s1` [Compound 28], the IC50 is more than 50000 nM in assay [1] and 1000 nM in the assay on P493-6 (myc "on") cells (setting [3]). `O=C(Nc1nnc(CCSCCc2nnc(NC(=O)[C@H]3C[C@@H]3c3ccccc3)s2)s1)C1C[C@@H]1c1ccccc1` (some centres unmarked) [Compound 91]: the IC50 in assay [1] was more than 20000 nM. Still for that read-out and setting: in the case of `CC[C@@](O)(C(=O)Nc1nnc(CCCCc2nnc(NC(=O)[C@](O)(CC)c3ccccc3)s2)s1)c1ccccc1` [Compound 144] it was more than 20000 nM.

As for `CC(=O)O[C@@H](C(=O)Nc1nnc(CCSCc2nnc(NC(=O)[C@H](OC(C)=O)c3ccccc3)s2)s1)c1ccccc1` [Compound 238], the IC50 in assay [1] was determined as 13000 nM.

For the compound `CS(=O)(=O)CCCOc1cccc(CC(=O)Nc2nnc(CCCCc3ccc(NC(=O)Cc4ccccc4)nn3)s2)c1` [Compound 583], the IC50 in assay [2] (setting [4]) is 5 nM; with P493-6 (myc "on") cells (setting [5]), 42 nM. On to `CC(C(=O)Nc1nnc(CCCCc2ccc(NC(=O)Cc3ccccc3)nn2)s1)c1cccc(C(=O)c2ccccc2)c1` (centres unmarked) [Compound 587], for which the IC50 is 7 nM in assay [2] (setting [4]) and 57 nM in the assay on P493-6 (myc "on") cells (setting [5]). The like results for `CCOC(=O)c1ccc(CC(=O)Nc2nnc(CCCCc3ccc(NC(=O)Cc4ccccc4)nn3)s2)cc1OCC` [Compound 588] were, in that order, 8 nM and 270 nM. The like results for `CC(=O)NC(C)c1cccc(CC(=O)Nc2ccc(CCCCc3nnc(NC(=O)Cc4ccccc4)s3)nn2)c1` (centres unmarked) [Compound 590] were, in that order, 7 nM and 87 nM. Take `CCNC(=O)OC(C)c1cccc(CC(=O)Nc2nnc(CCCCc3ccc(NC(=O)Cc4ccccc4)nn3)s2)c1` (centres unmarked) [Compound 592]: the results for the IC50 (in assay [2] (setting [4]); in the assay with P493-6 (myc "on") cells (setting [5])) were 4 nM and 11 nM, respectively.

Take `CC(O)c1cccc(CC(=O)Nc2nnc(CCCCc3ccc(NC(=O)Cc4ccccc4)nn3)s2)c1` (centres unmarked) [Compound 593]: the IC50 was 5 nM in assay [2] (setting [4]) and 33 nM in the assay with P493-6 (myc "on") cells (setting [5]). The corresponding values for `CCNC(=O)OC(C)c1cccc(CC(=O)Nc2ccc(CCCCc3nnc(NC(=O)C(C)c4ccccc4)s3)nn2)c1` (centres unmarked) [Compound 594] are 7 nM and 50 nM.

On to `CC(O)c1cccc(CC(=O)Nc2ccc(CCCCc3nnc(NC(=O)C(C)c4ccccc4)s3)nn2)c1` (centres unmarked) [Compound 595], for which the results for the IC50 (in assay [2] (setting [4]); in the assay with P493-6 (myc "on") cells (setting [5])) were 7 nM and 59 nM, respectively. Regarding `CCNC(=O)OC(C)c1cccc(CC(=O)Nc2ccc(CCCCc3nnc(NC(=O)Cc4cccc(OC(F)(F)F)c4)s3)nn2)c1` (centres unmarked) [Compound 596], the figures for the IC50 (in assay [2] (setting [4]); in the assay on P493-6 (myc "on") cells (setting [5])) were 15 nM and 330 nM, respectively. The corresponding values for `CC(O)c1cccc(CC(=O)Nc2ccc(CCCCc3nnc(NC(=O)Cc4cccc(OC(F)(F)F)c4)s3)nn2)c1` (centres unmarked) [Compound 597] are 5 nM and 17 nM. With `COC(=O)NC(C)c1cccc(CC(=O)Nc2ccc(CCCCc3nnc(NC(=O)C(C)c4ccccc4)s3)nn2)c1` (centres unmarked) [Compound 601], the values for the IC50 (in assay [2] (setting [4]); with P493-6 (myc "on") cells (setting [5])) were 6 nM and 36 nM, respectively. For the compound `CCOC(=O)NC(C)c1cccc(CC(=O)Nc2ccc(CCCCc3nnc(NC(=O)C(C)c4ccccc4)s3)nn2)c1` (centres unmarked) [Compound 602], the IC50 stood at 6 nM in assay [2] (setting [4]) and 36 nM with P493-6 (myc "on") cells (setting [5]). The like results for `CC(C)(C)OC(=O)N1Cc2cccc(CC(=O)Nc3nnc(CCCCc4ccc(NC(=O)Cc5ccccc5)nn4)s3)c2C1` [Compound 608] were, in that order, 7 nM and 37 nM. As for `CCOC(=O)NCc1cccc(CC(=O)Nc2ccc(CCCCc3nnc(NC(=O)C(OC)c4ccccc4)s3)nn2)c1` (centres unmarked) [Compound 609], the IC50 in assay [2] (setting [4]) is 9 nM; in the assay on P493-6 (myc "on") cells (setting [5]), 14 nM. For `CC(C)(C)OC(=O)N1Cc2cccc(CC(=O)Nc3ccc(CCCCc4nnc(NC(=O)Cc5cccc(OC(F)(F)F)c5)s4)nn3)c2C1` [Compound 612], the IC50 in assay [2] (setting [4]) is 65 nM; with P493-6 (myc "on") cells (setting [5]), 100 nM. The corresponding values for `COc1cccc(CC(=O)Nc2ccc(CCCCc3nnc(NC(=O)Cc4cccc(OC(F)(F)F)c4)s3)nn2)c1` [Compound 617] are 5 nM and 40 nM. The like results for `O=C(Cc1cccc(Cl)c1)Nc1ccc(CCCCc2nnc(NC(=O)Cc3cccc(OC(F)(F)F)c3)s2)nn1` [Compound 618] were, in that order, 8 nM and 35 nM.

`CC(N)c1cccc(CC(=O)Nc2ccc(CCCCc3nnc(NC(=O)C(C)c4ccccc4)s3)nn2)c1` (centres unmarked) [Compound 619]: the figures for the IC50 (in assay [2]; with P493-6 (myc "on") cells (setting [5])) were 13 nM and 150 nM, respectively. As for `CC(C)C(=O)NC(C)c1cccc(CC(=O)Nc2ccc(CCCCc3nnc(NC(=O)Cc4ccccc4)s3)nn2)c1` (centres unmarked) [Compound 620], the IC50 was determined as 5 nM in assay [2] (setting [4]) and 11 nM in the assay on P493-6 (myc "on") cells (setting [5]).

On to `CCC(=O)NC(C)c1cccc(CC(=O)Nc2ccc(CCCCc3nnc(NC(=O)Cc4ccccc4)s3)nn2)c1` (centres unmarked) [Compound 621], for which the results for the IC50 (in assay [2]; in the assay with P493-6 (myc "on") cells (setting [5])) were 5 nM and 20 nM, respectively. In the case of `CC(NC(=O)C(F)(F)F)c1cccc(CC(=O)Nc2ccc(CCCCc3nnc(NC(=O)Cc4ccccc4)s3)nn2)c1` (centres unmarked) [Compound 622], the results for the IC50 (in assay [2] (setting [4]); in the assay on P493-6 (myc "on") cells (setting [5])) were 4 nM and 10 nM, respectively. Consider `CC(NC(=O)CC(F)(F)F)c1cccc(CC(=O)Nc2ccc(CCCCc3nnc(NC(=O)Cc4ccccc4)s3)nn2)c1` (centres unmarked) [Compound 624], for which the values for the IC50 (in assay [2]; in the assay with P493-6 (myc "on") cells (setting [5])) were 4 nM and 9 nM, respectively. The like results for `CC(C)CC(=O)NC(C)c1cccc(CC(=O)Nc2ccc(CCCCc3nnc(NC(=O)Cc4ccccc4)s3)nn2)c1` (centres unmarked) [Compound 625] were, in that order, 4 nM and 6 nM.

Turning to `CC(NS(C)(=O)=O)c1cccc(CC(=O)Nc2ccc(CCCCc3nnc(NC(=O)Cc4ccccc4)s3)nn2)c1` (centres unmarked) [Compound 626], the IC50 in assay [2] was 4 nM; in the assay on P493-6 (myc "on") cells (setting [5]), 17 nM.

Consider `CC(C)(C)OC(=O)NC(C)(C)c1cccc(CC(=O)Nc2nnc(CCCCc3ccc(NC(=O)Cc4ccccc4)nn3)s2)c1` [Compound 630], for which the results for the IC50 (in assay [2] (setting [4]); in the assay on P493-6 (myc "on") cells (setting [5])) were 4 nM and 9 nM, respectively. The corresponding values for `CC(C)(C)OC(=O)NC(C)(C)c1cccc(CC(=O)Nc2ccc(CCCCc3nnc(NC(=O)Cc4ccccc4)s3)nn2)c1` [Compound 631] are 5 nM and 6 nM.

On to `CC(C)(N)c1cccc(CC(=O)Nc2nnc(CCCCc3ccc(NC(=O)Cc4ccccc4)nn3)s2)c1` [Compound 632], for which the IC50 worked out at 10 nM in assay [2] and 200 nM in the assay on P493-6 (myc "on") cells (setting [5]). As to `CC(C)(N)c1cccc(CC(=O)Nc2ccc(CCCCc3nnc(NC(=O)Cc4ccccc4)s3)nn2)c1` [Compound 633], the IC50 in assay [2] (setting [4]) is 7 nM; in the assay with P493-6 (myc "on") cells (setting [5]), 130 nM. Consider `CS(=O)(=O)Cc1cccc(CC(=O)Nc2ccc(CCCCc3nnc(NC(=O)Cc4ccccc4)s3)nn2)c1` [Compound 635], for which the values for the IC50 (in assay [2] (setting [4]); with P493-6 (myc "on") cells (setting [5])) were 5 nM and 30 nM, respectively. With `CCCCS(=O)(=O)Cc1cccc(CC(=O)Nc2nnc(CCCCc3ccc(NC(=O)Cc4ccccc4)nn3)s2)c1` [Compound 644], the values for the IC50 (in assay [2]; in the assay on P493-6 (myc "on") cells (setting [5])) were 3 nM and 13 nM, respectively. On to `CCCCS(=O)(=O)Cc1cccc(CC(=O)Nc2ccc(CCCCc3nnc(NC(=O)Cc4ccccc4)s3)nn2)c1` [Compound 645], for which the IC50 in assay [2] (setting [4]) is 2 nM; in the assay on P493-6 (myc "on") cells (setting [5]) it was 15 nM. The corresponding values for `CCN(CC)C(=O)COc1cccc(CC(=O)Nc2ccc(CCCCc3nnc(NC(=O)Cc4ccccc4)s3)nn2)c1` [Compound 646] are 7 nM and 37 nM.

As to `CC(C)CNC(=O)COc1cccc(CC(=O)Nc2ccc(CCCCc3nnc(NC(=O)Cc4ccccc4)s3)nn2)c1` [Compound 647], the results for the IC50 (in assay [2] (setting [4]); in the assay on P493-6 (myc "on") cells (setting [5])) were 4 nM and 18 nM, respectively.

In the case of `O=C(Cc1cccc2c1CNC2)Nc1ccc(CCCCc2nnc(NC(=O)Cc3cccc(OC(F)(F)F)c3)s2)nn1` [Compound 649], the IC50 was 4 nM in assay [2] (setting [4]) and 34 nM with P493-6 (myc "on") cells (setting [5]). As for `CC(N)c1cc(CC(=O)Nc2nnc(CCCCc3ccc(NC(=O)Cc4ccccc4)nn3)s2)ccc1F` (centres unmarked) [Compound 655], the IC50 came to 19 nM in assay [2] (setting [4]) and 350 nM in the assay with P493-6 (myc "on") cells (setting [5]). The like results for `CC(N)c1cc(CC(=O)Nc2ccc(CCCCc3nnc(NC(=O)Cc4ccccc4)s3)nn2)ccc1F` (centres unmarked) [Compound 656] were, in that order, 18 nM and 400 nM. The corresponding values for `O=C(Cc1ccccc1)Nc1ccc(CCCCc2nnc(NC(=O)Cc3cccc(OCC(F)(F)F)c3)s2)nn1` [Compound 665] are 5 nM and 100 nM. The like results for `O=C(Cc1cccc(OCC(F)(F)F)c1)Nc1ccc(CCCCc2nnc(NC(=O)Cc3ccccc3)s2)nn1` [Compound 667] were, in that order, 4 nM and 110 nM.
